# Test results as given in the CheMixHub viscosity set.
# ± gives the uncertainty stated by the source.
# Experiment: xn = mol fraction of the nth substance listed
smiles,measurement,setting,value
CC#N + CC(C)O,viscosity,"293.15 K, 101.32 kPa, x1 = 0.0526",1.921 ± 0.015 mPa·s
same,viscosity,"293.15 K, 101.32 kPa, x1 = 0.0771",1.736 ± 0.014 mPa·s
same,viscosity,"293.15 K, 101.32 kPa, x1 = 0.1018",1.572 ± 0.013 mPa·s
same,viscosity,"293.15 K, 101.32 kPa, x1 = 0.2227",1.15 ± 0.009 mPa·s
same,viscosity,"293.15 K, 101.32 kPa, x1 = 0.3314",0.8622 ± 0.0073 mPa·s
same,viscosity,"293.15 K, 101.32 kPa, x1 = 0.3989",0.7354 ± 0.0063 mPa·s
same,viscosity,"293.15 K, 101.32 kPa, x1 = 0.55",0.5657 ± 0.0051 mPa·s
same,viscosity,"293.15 K, 101.32 kPa, x1 = 0.625",0.502 ± 0.0046 mPa·s
same,viscosity,"293.15 K, 101.32 kPa, x1 = 0.6893",0.4639 ± 0.0043 mPa·s
same,viscosity,"293.15 K, 101.32 kPa, x1 = 0.7624",0.4194 ± 0.004 mPa·s
same,viscosity,"293.15 K, 101.32 kPa, x1 = 0.864",0.3823 ± 0.0037 mPa·s
same,viscosity,"298.15 K, 101 kPa, x1 = 0.1056",1.372 ± 0.019 mPa·s
same,viscosity,"298.15 K, 101 kPa, x1 = 0.1688",1.145 ± 0.015 mPa·s
same,viscosity,"298.15 K, 101 kPa, x1 = 0.2531",0.923 ± 0.012 mPa·s
same,viscosity,"298.15 K, 101 kPa, x1 = 0.4135",0.653 ± 0.008 mPa·s
same,viscosity,"298.15 K, 101 kPa, x1 = 0.5014",0.556 ± 0.007 mPa·s
same,viscosity,"298.15 K, 101 kPa, x1 = 0.6077",0.473 ± 0.006 mPa·s
same,viscosity,"298.15 K, 101 kPa, x1 = 0.7093",0.424 ± 0.005 mPa·s
same,viscosity,"298.15 K, 101 kPa, x1 = 0.8276",0.373 ± 0.004 mPa·s
same,viscosity,"298.15 K, 101 kPa, x1 = 0.9013",0.356 ± 0.004 mPa·s
same,viscosity,"298.15 K, 101.3 kPa, x1 = 0.1399",1.254 ± 0.03 mPa·s
same,viscosity,"298.15 K, 101.3 kPa, x1 = 0.2679",0.846 ± 0.021 mPa·s
same,viscosity,"298.15 K, 101.3 kPa, x1 = 0.3855",0.66 ± 0.017 mPa·s
same,viscosity,"298.15 K, 101.3 kPa, x1 = 0.4939",0.541 ± 0.015 mPa·s
same,viscosity,"298.15 K, 101.3 kPa, x1 = 0.5942",0.482 ± 0.014 mPa·s
same,viscosity,"298.15 K, 101.3 kPa, x1 = 0.6871",0.419 ± 0.012 mPa·s
same,viscosity,"298.15 K, 101.3 kPa, x1 = 0.7736",0.372 ± 0.011 mPa·s
same,viscosity,"298.15 K, 101.3 kPa, x1 = 0.8541",0.343 ± 0.011 mPa·s
same,viscosity,"298.15 K, 101.3 kPa, x1 = 0.9295",0.342 ± 0.011 mPa·s
same,viscosity,"303.15 K, 101 kPa, x1 = 0.1056",1.088 ± 0.014 mPa·s
same,viscosity,"303.15 K, 101 kPa, x1 = 0.1688",0.918 ± 0.012 mPa·s
same,viscosity,"303.15 K, 101 kPa, x1 = 0.2531",0.762 ± 0.009 mPa·s
same,viscosity,"303.15 K, 101 kPa, x1 = 0.4135",0.551 ± 0.007 mPa·s
same,viscosity,"303.15 K, 101 kPa, x1 = 0.5014",0.482 ± 0.006 mPa·s
same,viscosity,"303.15 K, 101 kPa, x1 = 0.6077",0.417 ± 0.005 mPa·s
same,viscosity,"303.15 K, 101 kPa, x1 = 0.7093",0.382 ± 0.004 mPa·s
same,viscosity,"303.15 K, 101 kPa, x1 = 0.8276",0.341 ± 0.004 mPa·s
same,viscosity,"303.15 K, 101 kPa, x1 = 0.9013",0.327 ± 0.004 mPa·s
same,viscosity,"303.15 K, 101.3 kPa, x1 = 0.1399",1.114 ± 0.027 mPa·s
same,viscosity,"303.15 K, 101.3 kPa, x1 = 0.2679",0.758 ± 0.02 mPa·s
same,viscosity,"303.15 K, 101.3 kPa, x1 = 0.3855",0.599 ± 0.016 mPa·s
same,viscosity,"303.15 K, 101.3 kPa, x1 = 0.4939",0.502 ± 0.014 mPa·s
same,viscosity,"303.15 K, 101.3 kPa, x1 = 0.5942",0.45 ± 0.013 mPa·s
same,viscosity,"303.15 K, 101.3 kPa, x1 = 0.6871",0.394 ± 0.012 mPa·s
same,viscosity,"303.15 K, 101.3 kPa, x1 = 0.7736",0.356 ± 0.011 mPa·s
same,viscosity,"303.15 K, 101.3 kPa, x1 = 0.8541",0.327 ± 0.01 mPa·s
same,viscosity,"303.15 K, 101.3 kPa, x1 = 0.9295",0.326 ± 0.01 mPa·s
same,viscosity,"303.15 K, 101.32 kPa, x1 = 0.0526",1.464 ± 0.012 mPa·s
same,viscosity,"303.15 K, 101.32 kPa, x1 = 0.0771",1.361 ± 0.011 mPa·s
same,viscosity,"303.15 K, 101.32 kPa, x1 = 0.1018",1.239 ± 0.01 mPa·s
same,viscosity,"303.15 K, 101.32 kPa, x1 = 0.2227",0.9168 ± 0.0077 mPa·s
same,viscosity,"303.15 K, 101.32 kPa, x1 = 0.3314",0.7097 ± 0.0062 mPa·s
same,viscosity,"303.15 K, 101.32 kPa, x1 = 0.3989",0.6154 ± 0.0054 mPa·s
same,viscosity,"303.15 K, 101.32 kPa, x1 = 0.55",0.4831 ± 0.0045 mPa·s
same,viscosity,"303.15 K, 101.32 kPa, x1 = 0.625",0.4366 ± 0.0041 mPa·s
same,viscosity,"303.15 K, 101.32 kPa, x1 = 0.6893",0.407 ± 0.0039 mPa·s
same,viscosity,"303.15 K, 101.32 kPa, x1 = 0.7624",0.378 ± 0.0037 mPa·s
same,viscosity,"303.15 K, 101.32 kPa, x1 = 0.864",0.344 ± 0.0034 mPa·s
same,viscosity,"308.15 K, 101 kPa, x1 = 0.1056",0.871 ± 0.011 mPa·s
same,viscosity,"308.15 K, 101 kPa, x1 = 0.1688",0.739 ± 0.01 mPa·s
same,viscosity,"308.15 K, 101 kPa, x1 = 0.2531",0.635 ± 0.008 mPa·s
same,viscosity,"308.15 K, 101 kPa, x1 = 0.4135",0.475 ± 0.006 mPa·s
same,viscosity,"308.15 K, 101 kPa, x1 = 0.5014",0.42 ± 0.005 mPa·s
same,viscosity,"308.15 K, 101 kPa, x1 = 0.6077",0.372 ± 0.004 mPa·s
same,viscosity,"308.15 K, 101 kPa, x1 = 0.7093",0.345 ± 0.004 mPa·s
same,viscosity,"308.15 K, 101 kPa, x1 = 0.8276",0.312 ± 0.004 mPa·s
same,viscosity,"308.15 K, 101 kPa, x1 = 0.9013",0.302 ± 0.004 mPa·s
same,viscosity,"308.15 K, 101.3 kPa, x1 = 0.1399",0.995 ± 0.025 mPa·s
same,viscosity,"308.15 K, 101.3 kPa, x1 = 0.2679",0.687 ± 0.018 mPa·s
same,viscosity,"308.15 K, 101.3 kPa, x1 = 0.3855",0.546 ± 0.015 mPa·s
same,viscosity,"308.15 K, 101.3 kPa, x1 = 0.4939",0.465 ± 0.013 mPa·s
same,viscosity,"308.15 K, 101.3 kPa, x1 = 0.5942",0.417 ± 0.012 mPa·s
same,viscosity,"308.15 K, 101.3 kPa, x1 = 0.6871",0.37 ± 0.011 mPa·s
same,viscosity,"308.15 K, 101.3 kPa, x1 = 0.7736",0.331 ± 0.01 mPa·s
same,viscosity,"308.15 K, 101.3 kPa, x1 = 0.8541",0.311 ± 0.01 mPa·s
same,viscosity,"308.15 K, 101.3 kPa, x1 = 0.9295",0.309 ± 0.01 mPa·s
same,viscosity,"313.15 K, 101.3 kPa, x1 = 0.1399",0.889 ± 0.022 mPa·s
same,viscosity,"313.15 K, 101.3 kPa, x1 = 0.2679",0.623 ± 0.017 mPa·s
same,viscosity,"313.15 K, 101.32 kPa, x1 = 0.0526",1.125 ± 0.009 mPa·s
same,viscosity,"313.15 K, 101.32 kPa, x1 = 0.0771",1.047 ± 0.009 mPa·s
same,viscosity,"313.15 K, 101.32 kPa, x1 = 0.1018",0.991 ± 0.0083 mPa·s
same,viscosity,"313.15 K, 101.32 kPa, x1 = 0.2227",0.7301 ± 0.0063 mPa·s
same,viscosity,"313.15 K, 101.32 kPa, x1 = 0.3314",0.5949 ± 0.0053 mPa·s
same,viscosity,"313.15 K, 101.32 kPa, x1 = 0.3989",0.5253 ± 0.0048 mPa·s
same,viscosity,"313.15 K, 101.32 kPa, x1 = 0.55",0.4201 ± 0.004 mPa·s
same,viscosity,"313.15 K, 101.32 kPa, x1 = 0.625",0.3817 ± 0.0037 mPa·s
same,viscosity,"313.15 K, 101.32 kPa, x1 = 0.6893",0.361 ± 0.0036 mPa·s
same,viscosity,"313.15 K, 101.32 kPa, x1 = 0.7624",0.3321 ± 0.0033 mPa·s
same,viscosity,"313.15 K, 101.32 kPa, x1 = 0.864",0.3081 ± 0.0032 mPa·s
same,viscosity,"323.15 K, 101 kPa, x2 = 0.0989",0.289 ± 0.01 mPa·s
same,viscosity,"323.15 K, 101 kPa, x2 = 0.1994",0.312 ± 0.01 mPa·s
same,viscosity,"323.15 K, 101 kPa, x2 = 0.2943",0.34 ± 0.01 mPa·s
same,viscosity,"323.15 K, 101 kPa, x2 = 0.3965",0.378 ± 0.01 mPa·s
same,viscosity,"323.15 K, 101 kPa, x2 = 0.4864",0.427 ± 0.01 mPa·s
same,viscosity,"323.15 K, 101 kPa, x2 = 0.6077",0.499 ± 0.01 mPa·s
same,viscosity,"323.15 K, 101 kPa, x2 = 0.7049",0.58 ± 0.01 mPa·s
same,viscosity,"323.15 K, 101 kPa, x2 = 0.8007",0.685 ± 0.01 mPa·s
same,viscosity,"323.15 K, 101 kPa, x2 = 0.8971",0.815 ± 0.011 mPa·s
same,viscosity,"323.15 K, 101.32 kPa, x1 = 0.0526",0.9024 ± 0.0077 mPa·s
same,viscosity,"323.15 K, 101.32 kPa, x1 = 0.0771",0.8427 ± 0.0072 mPa·s
same,viscosity,"323.15 K, 101.32 kPa, x1 = 0.1018",0.7839 ± 0.0068 mPa·s
same,viscosity,"323.15 K, 101.32 kPa, x1 = 0.2227",0.6091 ± 0.0054 mPa·s
same,viscosity,"323.15 K, 101.32 kPa, x1 = 0.3314",0.5031 ± 0.0046 mPa·s
same,viscosity,"323.15 K, 101.32 kPa, x1 = 0.3989",0.4466 ± 0.0042 mPa·s
same,viscosity,"323.15 K, 101.32 kPa, x1 = 0.55",0.3731 ± 0.0037 mPa·s
same,viscosity,"323.15 K, 101.32 kPa, x1 = 0.625",0.3434 ± 0.0034 mPa·s
same,viscosity,"323.15 K, 101.32 kPa, x1 = 0.6893",0.329 ± 0.0033 mPa·s
same,viscosity,"323.15 K, 101.32 kPa, x1 = 0.7624",0.3054 ± 0.0032 mPa·s
same,viscosity,"323.15 K, 101.32 kPa, x1 = 0.864",0.2835 ± 0.003 mPa·s
